Assays:
pressor response to AII = test: Assay C: In vivo intragastric pressor assay response for AII antagonists; design: species or system rat; conditions: intragastric, or intraduodenal for examples listed; for inhibition at 3 mg/kg: Rattus norvegicus; for inhibition at 3 mg/kg / Assay C Duration: dose 3 mg/kg
Method: Assay C: In Vivo Intragastric Pressor Assay Response for AII Antagonists
Male Sprague-Dawley rats weighing 225-300 grams were anesthetized with methohexital (30 mg/kg, i.p.) and catheters were implanted into the femoral artery and vein. The catheters were tunneled subcutaneously to exit dorsally, posterior to the head and between the scapulae. The catheters were filled with heparin (1000 units/ml of saline). The rats were returned to their cage and allowed regular rat chow and water ad libitum. After full recovery from surgery (3-4 days), rats were placed in Lucite holders and the arterial line was connected to a pressure transducer. Arterial pressure was recorded on a Gould polygraph (mmHg). Angiotensin II was administered as a 30 ng/kg bolus via the venous catheter delivered in a 50 μl volume with a 0.2 ml saline flush. The pressor response in mm Hg was measured by the differer.-:e from pre-injection arterial pressure to the maximum pressure achieved. The AII injection was repeated every 10 minutes until three consecutive injections yielded responses within 4 mmHg of each other. These three responses were then averaged and represented the control response to AII. The test compound was suspended in 0.5% methylcellulose in water and was administered by gavage. The volume administered was 2 ml/kg body weight. The standard dose was 3 mg/kg. Angiotensin II bolus injections were given at 30, 45, 60, 75, 120, 150, and 180 minutes after gavage. The pressor response to AII was measured at each time point. The rats were then returned to their cage for future testing. A minimum of 3 days was allowed between tests. Percent inhibition was calculated for each time point following gavage by the following formula:
[(Control Response—Response at time point)/Control Response]×100.

[1] = target: angiotensin II AT1 receptor; test: Assay A: Angiotensin II binding activity (125I-AII displacement, rat uterine membrane preparation)
Method: Assay A: Antiotensin II Binding Activity
Compounds of the invention were tested for ability to bind to the smooth muscle angiotensin II receptor using a rat uterine membrane preparation. […] Rat uterine membranes were prepared from fresh tissue. All procedures were carried out at 4° C. Uteri were stripped of fat and homogenized in phosphate-buffered saline at pH 7.4 containing 5 mM EDTA. The homogenate was centrifuged at 1500×g for 20 min., and the supernatant was recentrifuged at 100,000×g for 60 min. The pellet was resuspended in buffer consisting of 2 mM EDTA and 50 mM Tris-HCl (pH 7.5) to a final protein concentration of 4 mg/ml. […] The reaction was initiated by the addition of membrane protein and the mixture was incubated at 25° C. for 60 min. The incubation was terminated with ice-cold 50 mM Tris-HCl (pH 7.5) and the mixture was filtered to separate membrane-bound labelled peptide from the free ligand. The incubation tube and filter were washed with ice-cold buffer. Filters were assayed for radioactivity in a Micromedic gamma counter.
Nonspecific binding was defined as binding in the presence of 10 μM of unlabelled AII. Specific binding was calculated as total binding minus nonspecific binding. […] Binding data were analyzed by a nonlinear least-squares curve fitting program.

| SMILES | inhibition at 3 mg/kg (pressor response to AII) | Assay C Duration (pressor response to AII) | IC50 [1] | Assay C Inhibition (pressor response to AII; dose cell empty (dose not given)) |
| --- | --- | --- | --- | --- |
| CCCCn1nc(C2OCCCO2)nc1Cc1ccc(-c2ccccc2-c2nnn[nH]2)nc1 [Compound 180] | 25% | 180 min | 20 nM | – |
| CCCCc1cn(-c2c(C)cccc2Cl)c(=O)n1Cc1ccc(-c2ccccc2-c2nnn[nH]2)nc1 [Compound 231] | 75% | >180 min | 3.6 nM | – |
| CCCCc1cn(-c2ccccc2C(C)(C)C)c(=O)n1Cc1ccc(-c2ccccc2-c2nnn[nH]2)nc1 [Compound 229] | 40% | >180 min | 19 nM | – |
| CCCCc1nc(C(=O)N(C)C(C)(C)C)n(Cc2ccc(-c3ccccc3-c3nnn[nH]3)nc2)n1 [Compound 256] | 30% | >180 min | 4.1 nM | – |
| CCCCc1cn(CCc2cccs2)c(=O)n1Cc1ccc(-c2ccccc2-c2nnn[nH]2)nc1 [Compound 209] | 25% | >180 min | 5 nM | – |
| CCCCc1cn(CC2CCCC2)c(=O)n1Cc1ccc(-c2ccccc2-c2nnn[nH]2)nc1 [Compound 208] | 50% | >180 min | 22 nM | – |
| CCCCc1cn(-c2ccccc2C(C)C)c(=O)n1Cc1ccc(-c2ccccc2-c2nnn[nH]2)cc1 [Compound 272] | 70% | >180 min | 97 nM | – |
| CCCCn1nc(C(F)(F)CCC)nc1Cc1ccc(-c2ccccc2-c2nnn[nH]2)nc1 [Compound 170] | 40% | >180 min | 26 nM | – |
| CCCCc1cn(CCC2CC2)c(=O)n1Cc1ccc(-c2ccccc2-c2nnn[nH]2)nc1 [Compound 206] | 30% | >180 min | 5.4 nM | – |
| CCCCc1cn(-c2cccn2CC)c(=O)n1Cc1ccc(-c2ccccc2-c2nnn[nH]2)nc1 [Compound 238] | 15% | >180 min | 1.7 nM | – |
| CCCCc1cn(-c2ccccc2C)c(=O)n1Cc1ccc(-c2ccccc2-c2nnn[nH]2)nc1 [Compound 217] | 65% | >180 min | 9.4 nM | – |
| CCCCc1cn(-c2c(OC)cccc2OC)c(=O)n1Cc1ccc(-c2ccccc2-c2nnn[nH]2)nc1 [Compound 230] | 25% | >180 min | 2.6 nM | – |
| CCCCc1nn(CC(=O)c2ccccc2)c(=O)n1Cc1ccc(-c2ccccc2-c2nn[nH]n2)cc1 [Compound 82] | – | – | 7.9 nM | 20% |
| CCCCc1cn(-c2ccccc2CC)c(=O)n1Cc1ccc(-c2ccccc2-c2nnn[nH]2)cc1 [Compound 271] | 20% | – | 14 nM | – |
| CCCCc1cn(-c2c(F)cccc2F)c(=O)n1Cc1ccc(-c2ccccc2-c2nnn[nH]2)nc1 [Compound 220] | 75% | 120 min | 7 nM | – |
| CCCCc1cn(CCC(C)(C)C)c(=O)n1Cc1ccc(-c2ccccc2-c2nnn[nH]2)nc1 [Compound 203] | 50% | >180 min | 9.2 nM | – |
| CCCCc1cn(C(C)(C)C)c(=O)n1Cc1ccc(-c2ccccc2-c2nnn[nH]2)nc1 [Compound 201] | 10% | 180 min | 17 nM | – |
| CCCCc1cn(CCC(C)C)c(=O)n1Cc1ccc(-c2ccccc2-c2nnn[nH]2)nc1 [Compound 198] | 35% | >180 min | 7.6 nM | – |
| CCCCc1cn(-c2c(Cl)cccc2Cl)c(=O)n1Cc1ccc(-c2ccccc2-c2nnn[nH]2)nc1 [Compound 221] | 25% | >180 min | 4.8 nM | – |
| CCCCn1nc(C(O)CCC)nc1Cc1ccc(-c2ccccc2-c2nnn[nH]2)nc1 (stereo not shown) [Compound 159] | 10% | 150 min | 21 nM | – |

| SMILES | inhibition at 3 mg/kg (pressor response to AII) | Assay C Duration (pressor response to AII) | IC50 [1] | Assay C Inhibition (pressor response to AII; dose cell empty (dose not given)) |
| --- | --- | --- | --- | --- |
| CCCCc1cn(CCCC)c(=O)n1Cc1ccc(-c2ccccc2-c2nnn[nH]2)nc1 [Compound 185] | 50% | >180 min | 6.5 nM | – |
| CCCCn1nc(C(OC)OC)nc1Cc1ccc(-c2ccccc2-c2nnn[nH]2)nc1 [Compound 175] | 0% | 0 min | 27 nM | – |
| CCCCc1cn(CCC2CCCC2)c(=O)n1Cc1ccc(-c2ccccc2-c2nnn[nH]2)nc1 [Compound 211] | 35% | >180 min | 18 nM | – |
| CCCc1cn(CCC)c(=O)n1Cc1ccc(-c2ccccc2-c2nnn[nH]2)nc1 [Compound 186] | 25% | 180 min | 38 nM | – |
| CCCCn1nc(C(=O)N(C)C(C)(C)C)nc1Cc1ccc(-c2ccccc2-c2nnn[nH]2)nc1 [Compound 171] | 0% | 0 min | 28 nM | – |
| CCCCc1cn(-c2c(CC)cccc2CC)c(=O)n1Cc1ccc(-c2ccccc2-c2nnn[nH]2)nc1 [Compound 234] | 20% | – | 5 nM | – |
| CCCCc1nc(CC(C)(C)C)n(Cc2ccc(-c3ccccc3-c3nnn[nH]3)nc2)n1 [Compound 250] | 0% | – | 43 nM | – |
| CCCCc1cn(-c2ccccc2CC)c(=O)n1Cc1ccc(-c2ccccc2-c2nnn[nH]2)nc1 [Compound 228] | 80% | >180 min | 4.5 nM | – |
| CCCCc1cn(CCc2ccccc2)c(=O)n1Cc1ccc(-c2ccccc2-c2nnn[nH]2)nc1 [Compound 210] | 15% | 180 min | 3.6 nM | – |
| CCCCCc1cn(CCCC)c(=O)n1Cc1ccc(-c2ccccc2-c2nnn[nH]2)nc1 [Compound 190] | 10% | 180 min | 10 nM | – |
| CCCCc1cn(C2CCCCC2)c(=O)n1Cc1ccc(-c2ccccc2-c2nnn[nH]2)nc1 [Compound 205] | 40% | >180 min | 20 nM | – |
| CCCCc1nc(CC(C)(C)C)nn1Cc1ccc(-c2ccccc2-c2nnn[nH]2)nc1 [Compound 249] | 20% | >180 min | 4.4 nM | – |
| CCCCc1cn([C@H]2[C@H](C)CCC[C@@H]2C)c(=O)n1Cc1ccc(-c2ccccc2-c2nnn[nH]2)nc1 [Compound 236] | 70% | >180 min | 4.9 nM | – |
| CCCCn1cc(CCC2CC2)n(Cc2ccc(-c3ccccc3-c3nnn[nH]3)nc2)c1=O [Compound 193] | 10% | 180 min | 11 nM | – |
| CCCCc1nc(-c2ccccc2Cl)n(Cc2ccc(-c3ccccc3-c3nnn[nH]3)nc2)n1 [Compound 268] | 0% | – | 520 nM | – |
| CCCCc1cn(CC(C)(C)C)c(=O)n1Cc1ccc(-c2ccccc2-c2nnn[nH]2)nc1 [Compound 202] | 65% | >180 min | 12 nM | – |
| CCCCn1nc(C2OCC(C)(C)CO2)nc1Cc1ccc(-c2ccccc2-c2nnn[nH]2)nc1 [Compound 181] | 20% | 180 min | 21 nM | – |
| CCCCc1cn(CC(CC)CC)c(=O)n1Cc1ccc(-c2ccccc2-c2nnn[nH]2)nc1 [Compound 204] | 75% | >180 min | 16 nM | – |
| CCCCc1cn(CCC2=CCCC2)c(=O)n1Cc1ccc(-c2ccccc2-c2nnn[nH]2)nc1 [Compound 212] | 15% | 180 min | 23 nM | – |
| CCCCc1cn(-c2c(C)cc(C)cc2C)c(=O)n1Cc1ccc(-c2ccccc2-c2nnn[nH]2)nc1 [Compound 232] | 70% | >180 min | 4.4 nM | – |

From patent US6653306B1, “Epoxy-steroidal aldosterone antagonist and angiotensin II antagonist combination therapy” (G.D. Searle & Co., priority 1995, dated 2003)
